According to PMC7211198, “Phase 1b study of a small molecule antagonist of human chemokine (C-C motif) receptor 2 (PF-04136309) in combination with nab-paclitaxel/gemcitabine in first-line treatment of metastatic pancreatic ductal adenocarcinoma” (Investigational New Drugs, 2019):

Assay: Safety and tolerability (TEAEs, SAEs, DLTs, RP2D) in phase Ib study
Assay type: in vivo, human
Conditions: 500 mg BID + nab-P/Gem
From the text: Safety assessments included collection of adverse events (AEs), serious AEs (SAEs), vital signs and physical examination, electrocardiogram (12-lead), laboratory assessments, including pregnancy test, and verification of concomitant treatments. A patient was considered as DLT-evaluable if the patient experienced a DLT or if otherwise, in the absence of a DLT, the patient received at least 85% of the planned doses of each study drug in the first 28-day cycle. DLTs were defined as any of the following events occurring in the first cycle of treatment (days 1 through 28) and attributed (i.e., judged to be at least possibly related) to the combination of PF-04136309 plus nab-paclitaxel/gemcitabine, where relationship with the combination could not be ruled out. DLTs were hematologic events of grade 4 neutropenia lasting >5 days; febrile neutropenia; grade ≥ 3 neutropenic infection; grade ≥ 3 thrombocytopenia with grade ≥ 2 bleeding; grade 4 thrombocytopenia; and nonhematologic events of grade 3 toxicities. Exceptions included nausea and vomiting responding to prophylaxis and/or treatment and lasting <7 days from each chemotherapy infusion period; diarrhea responding to treatment and lasting <7 days; grade 3 fatigue lasting <7 days; grade 3 QT interval corrected for heart rate prolongation (>500 msec) persisting after correction of any reversible causes; and/or grade 3 aspartate aminotransferase (AST) and/or alanine aminotransferase (ALT) increase lasting ≤7 days. All grade 4 toxicities and a delay of >2 weeks in receiving the next scheduled cycle due to persistent treatment-related toxicities were considered DLTs. AEs meeting DLT criteria in the dose-expansion phase included grade 3 events of diarrhea, hypokalemia, and dysesthesia and grade 4 hypoxia. […] AEs were graded according to the National Cancer Institute Common Terminology Criteria for Adverse Events, version 4.03.

## O=C(NCC(=O)N1CC[C@H](N[C@H]2CC[C@@](O)(c3ccc(-c4ncccn4)cn3)CC2)C1)c1cccc(C(F)(F)F)c1 [PF-04136309]
N = 17, first cycle (days 1 through 28)
  DLT: 3 (17.6) n (%)
N = 17, treatment-related TEAE
  ALT increase, grade ≥3: 3 (17.6) n (%)
  AST increase, grade ≥3: 3 (17.6) n (%)
  Anemia, grade ≥3: 4 (23.5) n (%)
  Fatigue, grade ≥3: 4 (23.5) n (%)
  Leukopenia, grade ≥3: 2 (11.8) n (%)
  Lymphopenia, grade ≥3: 4 (23.5) n (%)
  Neutropenia, grade ≥3: 2 (11.8) n (%)
all-causality SAE
  Abdominal pain, Grade 1: 0 n (%)
  Abdominal pain, Grade 2: 0 n (%)
  Abdominal pain, Grade 3: 2 (11.8) n (%)
  Abdominal pain, Grade 4: 0 n (%)
  Abdominal pain, Grade 5: 0 n (%)
  Abdominal pain, Total: 2 (11.8) n (%)
  Any SAE, Grade 1: 1 (5.9) n (%)
  Any SAE, Grade 2: 1 (5.9) n (%)
  Any SAE, Grade 3: 7 (41.2) n (%)
  Any SAE, Grade 4: 1 (5.9) n (%)
  Any SAE, Grade 5: 1 (5.9) n (%)
  Any SAE, Total: 11 (64.7) n (%)
  Chest pain, Grade 1: 0 n (%)
  Chest pain, Grade 2: 0 n (%)
  Chest pain, Grade 3: 1 (5.9) n (%)
  Chest pain, Grade 4: 0 n (%)
  Chest pain, Grade 5: 0 n (%)
  Chest pain, Total: 1 (5.9) n (%)
  Dyspnea, Grade 1: 0 n (%)
  Dyspnea, Grade 2: 0 n (%)
  Dyspnea, Grade 3: 1 (5.9) n (%)
  Dyspnea, Grade 4: 0 n (%)
  Dyspnea, Grade 5: 0 n (%)
  Dyspnea, Total: 1 (5.9) n (%)
  Episcleritis, Grade 1: 0 n (%)
  Episcleritis, Grade 2: 1 (5.9) n (%)
  Episcleritis, Grade 3: 0 n (%)
  Episcleritis, Grade 4: 0 n (%)
  Episcleritis, Grade 5: 0 n (%)
  Episcleritis, Total: 1 (5.9) n (%)
  Hypoxia, Grade 1: 0 n (%)
  Hypoxia, Grade 2: 0 n (%)
  Hypoxia, Grade 3: 0 n (%)
  Hypoxia, Grade 4: 1 (5.9) n (%)
  Hypoxia, Grade 5: 0 n (%)
  Hypoxia, Total: 1 (5.9) n (%)
  Klebsiella bacteremia, Grade 1: 0 n (%)
  Klebsiella bacteremia, Grade 2: 0 n (%)
  Klebsiella bacteremia, Grade 3: 1 (5.9) n (%)
  Klebsiella bacteremia, Grade 4: 0 n (%)
  Klebsiella bacteremia, Grade 5: 0 n (%)
  Klebsiella bacteremia, Total: 1 (5.9) n (%)
  Liver abscess, Grade 1: 0 n (%)
  Liver abscess, Grade 2: 0 n (%)
  Liver abscess, Grade 3: 1 (5.9) n (%)
  Liver abscess, Grade 4: 0 n (%)
  Liver abscess, Grade 5: 0 n (%)
  Liver abscess, Total: 1 (5.9) n (%)
  Musculoskeletal pain, Grade 1: 0 n (%)
  Musculoskeletal pain, Grade 2: 0 n (%)
  Musculoskeletal pain, Grade 3: 1 (5.9) n (%)
  Musculoskeletal pain, Grade 4: 0 n (%)
  Musculoskeletal pain, Grade 5: 0 n (%)
  Musculoskeletal pain, Total: 1 (5.9) n (%)
  Neck pain, Grade 1: 0 n (%)
  Neck pain, Grade 2: 0 n (%)
  Neck pain, Grade 3: 1 (5.9) n (%)
  Neck pain, Grade 4: 0 n (%)
  Neck pain, Grade 5: 0 n (%)
  Neck pain, Total: 1 (5.9) n (%)
  Pneumonia, Grade 1: 0 n (%)
  Pneumonia, Grade 2: 0 n (%)
  Pneumonia, Grade 3: 0 n (%)
  Pneumonia, Grade 4: 0 n (%)
  Pneumonia, Grade 5: 1 (5.9) n (%)
  Pneumonia, Total: 1 (5.9) n (%)
  Pneumonitis, Grade 1: 0 n (%)
  Pneumonitis, Grade 2: 0 n (%)
  Pneumonitis, Grade 3: 3 (17.6) n (%)
  Pneumonitis, Grade 4: 0 n (%)
  Pneumonitis, Grade 5: 0 n (%)
  Pneumonitis, Total: 3 (17.6) n (%)
  Pyrexia, Grade 1: 1 (5.9) n (%)
  Pyrexia, Grade 2: 1 (5.9) n (%)
  Pyrexia, Grade 3: 0 n (%)
  Pyrexia, Grade 4: 0 n (%)
  Pyrexia, Grade 5: 0 n (%)
  Pyrexia, Total: 2 (11.8) n (%)
  Small intestinal obstruction, Grade 1: 0 n (%)
  Small intestinal obstruction, Grade 2: 0 n (%)
  Small intestinal obstruction, Grade 3: 1 (5.9) n (%)
  Small intestinal obstruction, Grade 4: 0 n (%)
  Small intestinal obstruction, Grade 5: 0 n (%)
  Small intestinal obstruction, Total: 1 (5.9) n (%)
all-causality TEAE
  ALT increase, Grade 1: 1 (5.9) n (%)
  ALT increase, Grade 2: 2 (11.8) n (%)
  ALT increase, Grade 3: 3 (17.6) n (%)
  ALT increase, Grade 4: 1 (5.9) n (%)
  ALT increase, Grade 5: 0 n (%)
  ALT increase, Total: 7 (41.2) n (%)
  AST increase, Grade 1: 0 n (%)
  AST increase, Grade 2: 1 (5.9) n (%)
  AST increase, Grade 3: 5 (29.4) n (%)
  AST increase, Grade 4: 0 n (%)
  AST increase, Grade 5: 0 n (%)
  AST increase, Total: 6 (35.3) n (%)
  Abdominal pain, Grade 1: 0 n (%)
  Abdominal pain, Grade 2: 3 (17.6) n (%)
  Abdominal pain, Grade 3: 3 (17.6) n (%)
  Abdominal pain, Grade 4: 0 n (%)
  Abdominal pain, Grade 5: 0 n (%)
  Abdominal pain, Total: 6 (35.3) n (%)
  Alopecia, Grade 1: 7 (41.2) n (%)
  Alopecia, Grade 2: 3 (17.6) n (%)
  Alopecia, Grade 3: 0 n (%)
  Alopecia, Grade 4: 0 n (%)
  Alopecia, Grade 5: 0 n (%)
  Alopecia, Total: 10 (58.8) n (%)
  Anemia, Grade 1: 2 (11.8) n (%)
  Anemia, Grade 2: 5 (29.4) n (%)
  Anemia, Grade 3: 4 (23.5) n (%)
  Anemia, Grade 4: 0 n (%)
  Anemia, Grade 5: 0 n (%)
  Anemia, Total: 11 (64.7) n (%)
  Any AE, Grade 1: 0 n (%)
  Any AE, Grade 2: 1 (5.9) n (%)
  Any AE, Grade 3: 12 (70.6) n (%)
  Any AE, Grade 4: 3 (17.6) n (%)
  Any AE, Grade 5: 1 (5.9) n (%)
  Any AE, Total: 17 (100.0) n (%)
  Appetite decrease, Grade 1: 5 (29.4) n (%)
  Appetite decrease, Grade 2: 0 n (%)
  Appetite decrease, Grade 3: 1 (5.9) n (%)
  Appetite decrease, Grade 4: 0 n (%)
  Appetite decrease, Grade 5: 0 n (%)
  Appetite decrease, Total: 6 (35.3) n (%)
  Blood alkaline phosphatase, Grade 1: 1 (5.9) n (%)
  Blood alkaline phosphatase, Grade 2: 4 (23.5) n (%)
  Blood alkaline phosphatase, Grade 3: 2 (11.8) n (%)
  Blood alkaline phosphatase, Grade 4: 0 n (%)
  Blood alkaline phosphatase, Grade 5: 0 n (%)
  Blood alkaline phosphatase, Total: 7 (41.2) n (%)
  Constipation, Grade 1: 5 (29.4) n (%)
  Constipation, Grade 2: 2 (11.8) n (%)
  Constipation, Grade 3: 0 n (%)
  Constipation, Grade 4: 0 n (%)
  Constipation, Grade 5: 0 n (%)
  Constipation, Total: 7 (41.2) n (%)
  Diarrhea, Grade 1: 4 (23.5) n (%)
  Diarrhea, Grade 2: 2 (11.8) n (%)
  Diarrhea, Grade 3: 1 (5.9) n (%)
  Diarrhea, Grade 4: 0 n (%)
  Diarrhea, Grade 5: 0 n (%)
  Diarrhea, Total: 7 (41.2) n (%)
  Edema, peripheral, Grade 1: 7 (41.2) n (%)
  Edema, peripheral, Grade 2: 1 (5.9) n (%)
  Edema, peripheral, Grade 3: 0 n (%)
  Edema, peripheral, Grade 4: 0 n (%)
  Edema, peripheral, Grade 5: 0 n (%)
  Edema, peripheral, Total: 8 (47.1) n (%)
  Fatigue, Grade 1: 4 (23.5) n (%)
  Fatigue, Grade 2: 4 (23.5) n (%)
  Fatigue, Grade 3: 5 (29.4) n (%)
  Fatigue, Grade 4: 0 n (%)
  Fatigue, Grade 5: 0 n (%)
  Fatigue, Total: 13 (76.5) n (%)
  Headache, Grade 1: 4 (23.5) n (%)
  Headache, Grade 2: 1 (5.9) n (%)
  Headache, Grade 3: 0 n (%)
  Headache, Grade 4: 0 n (%)
  Headache, Grade 5: 0 n (%)
  Headache, Total: 5 (29.4) n (%)
  Hyperglycemia, Grade 1: 2 (11.8) n (%)
  Hyperglycemia, Grade 2: 3 (17.6) n (%)
  Hyperglycemia, Grade 3: 3 (17.6) n (%)
  Hyperglycemia, Grade 4: 0 n (%)
  Hyperglycemia, Grade 5: 0 n (%)
  Hyperglycemia, Total: 8 (47.1) n (%)
  Insomnia, Grade 1: 7 (41.2) n (%)
  Insomnia, Grade 2: 1 (5.9) n (%)
  Insomnia, Grade 3: 0 n (%)
  Insomnia, Grade 4: 0 n (%)
  Insomnia, Grade 5: 0 n (%)
  Insomnia, Total: 8 (47.1) n (%)
  Lymphopenia, Grade 1: 0 n (%)
  Lymphopenia, Grade 2: 0 n (%)
  Lymphopenia, Grade 3: 5 (29.4) n (%)
  Lymphopenia, Grade 4: 0 n (%)
  Lymphopenia, Grade 5: 0 n (%)
  Lymphopenia, Total: 5 (29.4) n (%)
  Nausea, Grade 1: 12 (70.6) n (%)
  Nausea, Grade 2: 2 (11.8) n (%)
  Nausea, Grade 3: 0 n (%)
  Nausea, Grade 4: 0 n (%)
  Nausea, Grade 5: 0 n (%)
  Nausea, Total: 14 (82.4) n (%)
  Neuropathy peripheral, Grade 1: 8 (47.1) n (%)
  Neuropathy peripheral, Grade 2: 1 (5.9) n (%)
  Neuropathy peripheral, Grade 3: 0 n (%)
  Neuropathy peripheral, Grade 4: 0 n (%)
  Neuropathy peripheral, Grade 5: 0 n (%)
  Neuropathy peripheral, Total: 9 (52.9) n (%)
  Pyrexia, Grade 1: 7 (41.2) n (%)
  Pyrexia, Grade 2: 5 (29.4) n (%)
  Pyrexia, Grade 3: 0 n (%)
  Pyrexia, Grade 4: 0 n (%)
  Pyrexia, Grade 5: 0 n (%)
  Pyrexia, Total: 12 (70.6) n (%)
  Rash, Grade 1: 7 (41.2) n (%)
  Rash, Grade 2: 1 (5.9) n (%)
  Rash, Grade 3: 0 n (%)
  Rash, Grade 4: 0 n (%)
  Rash, Grade 5: 0 n (%)
  Rash, Total: 8 (47.1) n (%)
  Vomiting, Grade 1: 6 (35.3) n (%)
  Vomiting, Grade 2: 1 (5.9) n (%)
  Vomiting, Grade 3: 0 n (%)
  Vomiting, Grade 4: 0 n (%)
  Vomiting, Grade 5: 0 n (%)
  Vomiting, Total: 7 (41.2) n (%)
  Weight decreased, Grade 1: 5 (29.4) n (%)
  Weight decreased, Grade 2: 4 (23.5) n (%)
  Weight decreased, Grade 3: 0 n (%)
  Weight decreased, Grade 4: 0 n (%)
  Weight decreased, Grade 5: 0 n (%)
  Weight decreased, Total: 9 (52.9) n (%)
treatment-related SAE
  Any SAE, Grade 1: 0 n (%)
  Any SAE, Grade 2: 0 n (%)
